Assay results: ChEMBL document CHEMBL1909294, “Translating clinical findings into knowledge in drug safety evaluation--drug induced liver injury prediction system (DILIps)” (PLoS Comput Biol, 2011)

Key:
Hepatotoxicity [1] = tested on: Hepatotoxicity;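 on HepSE bilirubinemia: bilirubinemia hepatic side effect score drawn from the DILIps training data, a prediction system for drug-induced liver injury; call rule not given here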;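 on HepSE cholecystitis: Cholecystitis-related hepatic side effect score drawn from the DILIps (drug-induced liver injury prediction) training data set; call rule not given here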;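 on HepSE cholelithiasis: hepatic side effect score for cholelithiasis, drawn from the DILIps training data for predicting drug-induced liver injury; call rule not given here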;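 on HepSE cirrhosis: cirrhosis hepatic side effect score taken from the DILIps (drug-induced liver injury prediction) training set; call rule not given here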;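 on HepSE elevated liver function tests: hepatic side effect score for raised liver function tests, as recorded in the DILIps training set used for predicting drug-induced liver injury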; on HepSE hepatic failure: call rule not given here;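 on HepSE hepatomegaly: hepatic side effect score for hepatomegaly, taken from the training set of the DILIps drug-induced liver injury prediction system; call rule not given here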
Hepatotoxicity [2] = tested on: Hepatotoxicity; remark: listed apart in the source;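 on HepSE bilirubinemia: bilirubinemia hepatic side effect score drawn from the DILIps training data, a prediction system for drug-induced liver injury; call rule not given here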;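 on HepSE cholecystitis: Cholecystitis-related hepatic side effect score drawn from the DILIps (drug-induced liver injury prediction) training data set; call rule not given here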;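 on HepSE cholelithiasis: hepatic side effect score for cholelithiasis, drawn from the DILIps training data for predicting drug-induced liver injury; call rule not given here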;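 on HepSE cirrhosis: cirrhosis hepatic side effect score taken from the DILIps (drug-induced liver injury prediction) training set; call rule not given here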;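 on HepSE elevated liver function tests: hepatic side effect score for raised liver function tests, as recorded in the DILIps training set used for predicting drug-induced liver injury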; on HepSE hepatic failure: call rule not given here;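 on HepSE hepatomegaly: hepatic side effect score for hepatomegaly, taken from the training set of the DILIps drug-induced liver injury prediction system; call rule not given here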
Hepatotoxicity [3] = tested on: Hepatotoxicity; remark: listed apart in the source;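 on HepSE bilirubinemia: bilirubinemia hepatic side effect score drawn from the DILIps training data, a prediction system for drug-induced liver injury; call rule not given here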;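 on HepSE cholecystitis: Cholecystitis-related hepatic side effect score drawn from the DILIps (drug-induced liver injury prediction) training data set; call rule not given here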;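 on HepSE cholelithiasis: hepatic side effect score for cholelithiasis, drawn from the DILIps training data for predicting drug-induced liver injury; call rule not given here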;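 on HepSE cirrhosis: cirrhosis hepatic side effect score taken from the DILIps (drug-induced liver injury prediction) training set; call rule not given here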;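 on HepSE elevated liver function tests: hepatic side effect score for raised liver function tests, as recorded in the DILIps training set used for predicting drug-induced liver injury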; on HepSE hepatic failure: call rule not given here
Hepatotoxicity [4] = tested on: Hepatotoxicity; remark: listed apart in the source;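 on HepSE bilirubinemia: bilirubinemia hepatic side effect score drawn from the DILIps training data, a prediction system for drug-induced liver injury; call rule not given here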;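 on HepSE cholecystitis: Cholecystitis-related hepatic side effect score drawn from the DILIps (drug-induced liver injury prediction) training data set; call rule not given here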;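 on HepSE cholelithiasis: hepatic side effect score for cholelithiasis, drawn from the DILIps training data for predicting drug-induced liver injury; call rule not given here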;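 on HepSE cirrhosis: cirrhosis hepatic side effect score taken from the DILIps (drug-induced liver injury prediction) training set; call rule not given here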;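 on HepSE elevated liver function tests: hepatic side effect score for raised liver function tests, as recorded in the DILIps training set used for predicting drug-induced liver injury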; on HepSE hepatic failure: call rule not given here
Hepatotoxicity [5] = tested on: Hepatotoxicity; remark: listed apart in the source; on HepSE hepatic failure: call rule not given here
Hepatotoxicity [6] = tested on: Hepatotoxicity; remark: listed apart in the source; on HepSE hepatic failure: call rule not given here
Hepatotoxicity [7] = tested on: Hepatotoxicity; remark: listed apart in the source
Hepatotoxicity [8] = tested on: Hepatotoxicity; remark: listed apart in the source
Hepatotoxicity [9] = tested on: Hepatotoxicity; remark: listed apart in the source
Hepatotoxicity [10] = tested on: Hepatotoxicity; remark: listed apart in the source
Hepatotoxicity [11] = tested on: Hepatotoxicity; remark: listed apart in the source
Hepatotoxicity [12] = tested on: Hepatotoxicity; remark: listed apart in the source
Hepatotoxicity [13] = tested on: Hepatotoxicity; remark: listed apart in the source
Hepatotoxicity [14] = tested on: Hepatotoxicity; remark: listed apart in the source

SMILES	HepSE_bilirubinemia (Hepatotoxicity [1])	HepSE_cholecystitis (Hepatotoxicity [2])	HepSE_cholelithiasis (Hepatotoxicity [3])	HepSE_cirrhosis (Hepatotoxicity [4])	HepSE_elevated liver function tests (Hepatotoxicity [5])	HepSE_hepatic failure (Hepatotoxicity [6])	HepSE_hepatic necrosis (Hepatotoxicity [7])	HepSE_hepatitis (Hepatotoxicity [8])	HepSE_hepatomegaly (Hepatotoxicity [9])	HepSE_jaundice (Hepatotoxicity [10])	HepSE_liver disease (Hepatotoxicity [11])	HepSE_liver fatty (Hepatotoxicity [12])	HepSE_liver function tests abnormal (Hepatotoxicity [13])	HepSE_Combined Scores (Hepatotoxicity [14])	other results
CC[C@@H]([C@H](C)O)n1ncn(-c2ccc(N3CCN(c4ccc(OC[C@@H]5CO[C@@](Cn6cncn6)(c6ccc(F)cc6F)C5)cc4)CC3)cc2)c1=O [POSACONAZOLE]	1	0	0	0	0	1	0	1	1	1	0	0	1	6	
CC(C)(O)c1ccccc1CC[C@@H](SCC1(CC(=O)O)CC1)c1cccc(/C=C/c2ccc3ccc(Cl)cc3n2)c1 [MONTELUKAST]	0	0	0	0	0	0	0	1	0	0	1	0	0	2	
C=C1[C@H](CO)[C@@H](O)C[C@@H]1n1cnc2c(=O)[nH]c(N)nc21.O	0	0	0	0	0	0	0	1	1	0	0	0	0	2	
CC(C)NCC(O)COc1cccc2ccccc12 (stereo unspecified) [PROPRANOLOL]	0	0	0	0	0	0	0	0	0	0	0	0	0	0	
CC(=O)OCC(=O)[C@@]12OC3(CCCC3)O[C@@H]1C[C@H]1[C@@H]3CCC4=CC(=O)C=C[C@]4(C)[C@@]3(F)[C@@H](O)C[C@@]12C [AMCINONIDE]	0	0	0	0	0	0	0	0	0	0	0	0	0	0	
CN1CC[C@]23c4c5ccc(O)c4O[C@H]2C(=O)CC[C@H]3[C@H]1C5 [HYDROMORPHONE]	0	1	0	0	0	1	0	0	1	1	0	0	1	5	
C#CCN[C@@H]1CCc2ccccc21 [RASAGILINE]															HepSE_bilirubinemia (Hepatotoxicity [1]; Liver): 0; HepSE_cholecystitis (Hepatotoxicity [2]; Liver): 0; HepSE_cholelithiasis (Hepatotoxicity [3]; Liver): 0; HepSE_cirrhosis (Hepatotoxicity [4]; Liver): 0; HepSE_elevated liver function tests (Hepatotoxicity [5]; Liver): 0; HepSE_hepatic failure (Hepatotoxicity [6]; Liver): 0; HepSE_hepatic necrosis (Hepatotoxicity [7]; Liver): 0; HepSE_hepatitis (Hepatotoxicity [8]; Liver): 0; HepSE_hepatomegaly (Hepatotoxicity [9]; Liver): 0; HepSE_jaundice (Hepatotoxicity [10]; Liver): 1; HepSE_liver disease (Hepatotoxicity [11]; Liver): 0; HepSE_liver fatty (Hepatotoxicity [12]; Liver): 0; HepSE_liver function tests abnormal (Hepatotoxicity [13]; Liver): 1; HepSE_Combined Scores (Hepatotoxicity [14]; Liver): 2
[Li] [LITHIUM]	0	0	0	0	0	0	0	0	0	0	0	0	0	0	
Clc1ccc(CSC(Cn2ccnc2)c2ccc(Cl)cc2Cl)cc1 (stereo unspecified) [SULCONAZOLE]	0	0	0	0		0	0	0	0	0	0	0		0	HepSE_elevated liver function tests (Hepatotoxicity [5]; Liver): 0; HepSE_liver function tests abnormal (Hepatotoxicity [13]; Liver): 0
